This note sets out measurements from patent US20250230165A1, “HETEROCYCLIC COMPOUNDS FOR USE IN THE TREATMENT OF CANCER” (ARTIOS PHARMA LIMITED, priority 2021, published 2025).

In the test the target is T1, Human Polθ polymerase domain (aa1820-2590) (Homo sapiens, UniProt O75417).
T1 construct: Human Polθ polymerase domain (aa1820-2590) was expressed in E. coli; made in house; host or cells: E. coli
T1 sequence (O75417 1820-2590): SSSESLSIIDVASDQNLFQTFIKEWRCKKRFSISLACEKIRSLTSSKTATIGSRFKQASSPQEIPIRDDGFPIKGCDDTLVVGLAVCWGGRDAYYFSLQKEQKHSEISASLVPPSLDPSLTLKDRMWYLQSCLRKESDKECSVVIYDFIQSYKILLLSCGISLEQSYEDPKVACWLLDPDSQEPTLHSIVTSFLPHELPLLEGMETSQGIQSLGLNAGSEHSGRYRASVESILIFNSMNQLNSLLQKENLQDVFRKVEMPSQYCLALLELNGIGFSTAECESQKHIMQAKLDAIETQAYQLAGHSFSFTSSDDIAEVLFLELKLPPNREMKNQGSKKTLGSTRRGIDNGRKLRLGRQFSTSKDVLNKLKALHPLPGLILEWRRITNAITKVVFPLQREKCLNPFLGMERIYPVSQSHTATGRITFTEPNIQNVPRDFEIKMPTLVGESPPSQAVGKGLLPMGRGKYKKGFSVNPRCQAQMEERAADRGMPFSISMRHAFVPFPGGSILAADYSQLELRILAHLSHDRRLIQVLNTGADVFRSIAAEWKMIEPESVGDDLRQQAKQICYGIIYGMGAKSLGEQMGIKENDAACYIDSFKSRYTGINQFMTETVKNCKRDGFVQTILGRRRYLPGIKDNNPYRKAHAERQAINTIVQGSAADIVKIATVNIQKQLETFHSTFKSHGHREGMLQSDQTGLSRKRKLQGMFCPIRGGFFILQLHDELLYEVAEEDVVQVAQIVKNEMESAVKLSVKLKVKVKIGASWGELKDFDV
Briefly: Polθ Polymerase Domain Kinact/KI Assay (PicoGreen). The following applies: 0.8 nM Polθ, 100 nM DNA substrate, kobs vs [I] fit for 2-step covalent inhibitor. Type of test: biochemical. In short, it runs like this: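 Covalent inhibitors were tested against E. coli-expressed enzyme (0.8 nM final) with 100 nM annealed DNA substrate and […] in Tris pH 7.5 buffer, 1% DMSO. Reactions were EDTA-quenched over a 0–60 min time course and product DNA detected by PicoGreen fluorescence.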

Regarding `C=CC(=O)N1Cc2nc(CN3C[C@H]4CC(=O)N(c5cc(C(F)(F)F)cc(C)n5)[C@@H]4C(=O)N(C)c4cccc(Cl)c43)n(CC)c2C1` [Example 279, (3aR,11aS)-5-((5-acryloyl-1-ethyl-1,4,5,6-tetrahydropyrrolo[3,4-d]imidazol-2-yl)methyl)-6-chloro-10-methyl-1-(6-methyl-4-(trifluoromethyl)pyridin-2-yl)-1,3a,4,5,10,11a-hexahydro-2H-benzo[b]pyrrolo[2,3-f][1,4]diazocine-2,11(3H)-dione], the Kinact/Kl is 900000 M⁻¹ s⁻¹. In turn, `C=CC(=O)N1CC(n2ccc(CN3C[C@H]4CC(=O)N(c5cc(C(F)(F)F)cc(C)n5)[C@@H]4C(=O)N(C)c4cc(F)ccc43)n2)C1` [Example 41, (3aR,11aS)-5-((1-(1-acryloylazetidin-3-yl)-1H-pyrazol-3-yl)methyl)-8-fluoro-10-methyl-1-(6-methyl-4-(trifluoromethyl)pyridin-2-yl)-1,3a,4,5,10,11a-hexahydro-2H-benzo[b]pyrrolo[2,3-f][1,4]diazocine-2,11(3H)-dione] yielded a Kinact/Kl of 1.38e+06 M⁻¹ s⁻¹. The compound `Cc1cc(C(F)(F)F)cc(N2C(=O)C[C@@H]3CN(Cc4ccc5c(c4)CN(C(=O)/C=C/CN(C)C)C5)c4c(C)cccc4N(C)C(=O)[C@H]32)n1` [Example 176, (3aR,11aS)-5-((2-((E)-4-(dimethyl-amino)but-2-enoyl)isoindolin-5-yl)methyl)-6,10-dimethyl-1-(6-methyl-4-(tri-fluoromethyl)pyr-idin-2-yl)-1,3a,4,5,10,11a-hexa-hydro-2H-benzo [b]pyrrolo[2,3-f] [1,4]diazocine-2,11(3H)-dione] yielded a Kinact/Kl of 1.37e+06 M⁻¹ s⁻¹. With `C=CC(=O)N1CC(C)(N2CCN(CCN3C[C@H]4CC(=O)N(c5cc(C(F)(F)F)cc(C)n5)[C@@H]4C(=O)N(C)c4cccc(C)c43)CC2)C1` [Example 72, (3aR,11aS)-5-(2-(4-(1-acryloyl-3-methylazetidin-3-yl)piperazin-1-yl)ethyl)-6,10-dimethyl-1-(6-methyl-4-(trifluoromethyl)pyridin-2-yl)-1,3a,4,5,10,11a-hexahydro-2H-benzo[b]pyrrolo[2,3-f][1,4]diazocine-2,11(3H)-dione] the figure was 2.36e+06 M⁻¹ s⁻¹. The compound `C=CC(=O)N1CCC(N2CCC(CN3C[C@H]4CC(=O)N(c5cc(C(F)(F)F)cc(C)n5)[C@@H]4C(=O)N(C)c4cccc(C)c43)CC2)C1` (mixture of isomers) [Example 95b, (3aR,11aS)-5-((1-((R/S)-1-acryloylpyrrolidin-3-yl)piperidin-4-yl)methyl)-6,10-dimethyl-1-(6-methyl-4-(trifluoromethyl)pyridin-2-yl)-1,3a,4,5,10,11a-hexahydro-2H-benzo[b]pyrrolo[2,3-f][1,4]diazocine-2,11(3H)-dione] displayed a Kinact/Kl of 2.5e+06 M⁻¹ s⁻¹. `C=CC(=O)N1Cc2nc(CN3C[C@H]4CC(=O)N(c5cc(C(F)(F)F)cc(C)n5)[C@@H]4C(=O)N(C)c4cccc(Cl)c43)cn2C[C@H]1C(F)(F)F` (racemic) [Example 293a, (3aR,11aS)-5-(((S/R)-7-acryloyl-6-(trifluoromethyl)-5,6,7,8-tetrahydroimidazo[1,2-a]pyrazin-2-yl)methyl)-6-chloro-10-methyl-1-(6-methyl-4-(trifluoromethyl)pyridin-2-yl)-1,3a,4,5,10,11a-hexahydro-2H-benzo[b]pyrrolo[2,3-f][1,4]diazocine-2,11(3H)-dione] gave a Kinact/Kl of 880000 M⁻¹ s⁻¹. With `C=C(CN(C)C)C(=O)N1CC(CCCCN2C[C@H]3CC(=O)N(c4cc(C(F)(F)F)cc(C)n4)[C@@H]3C(=O)N(C)c3cccc(C)c32)C1` [Example 183, (3aR,11aS)-5-(4-(1-(2-((dimethyl-amino)methyl)-acryloyl)azetidin-3-yl)butyl)-6,10-dimethyl-1-(6-methyl-4-(trifluoro-methyl)pyridin-2-yl)-1,3a,4,5,10,11a-hexahydro-2H-benzo[b]pyrrolo [2,3-f][1,4]diazo-cine-2,11(3H)-dione] the figure was 3.8e+06 M⁻¹ s⁻¹; with `C=CC(=O)N1CCOC[C@H]1c1ccc(CN2C[C@H]3CC(=O)N(c4cc(C(F)(F)F)cc(C)n4)[C@@H]3C(=O)N(C)c3cccc(C)c32)cn1` (racemic) [Example 324a, (3aR,11aS)-5-((6-((R/S)-4-acryloyl-morpholin-3-yl)pyr-idin-3-yl)methyl)-6,10-dimethyl-1-(6-methyl-4-(trifluoro-methyl)pyridin-2-yl)-1,3a,4,5,10, 11a-hexahydro-2H-benzo[b]pyrrolo [2,3-f][1,4]diazo-cine-2,11(3H)-dione], 150000 M⁻¹ s⁻¹.

With `C=CC(=O)N1Cc2cc(CN3C[C@H]4CC(=O)N(c5cc(C(F)(F)F)cc(C)n5)[C@@H]4C(=O)N(C)c4cccc(Cl)c43)cnc2C1COC` (mixture of isomers) [Example 236, (3aR,11aS)-5-(((S/R)-6-acryloyl-7-(methoxymethyl)-6,7-dihydro-5H-pyrrolo[3,4-b]pyridin-3-yl)methyl)-6-chloro-10-methyl-1-(6-methyl-4-(trifluoromethyl)pyridin-2-yl)-1,3a,4,5,10,11a-hexahydro-2H-benzo[b]pyrrolo[2,3-f][1,4]diazocine-2,11(3H)-dione], the Kinact/Kl is 1.24e+06 M⁻¹ s⁻¹. With `C=CC(=O)N1Cc2nc(CN3C[C@H]4CC(=O)N(c5cc(C(F)(F)F)cc(C)n5)[C@@H]4C(=O)N(C)c4cccc(Cl)c43)cn2CC1CO` (stereo partly drawn) [Example 244, (3aR,11aS)-5-((7-acryloyl-6-(hydroxymethyl)-5,6,7,8-tetrahydroimidazo[1,2-a]pyrazin-2-yl)methyl)-6-chloro-10-methyl-1-(6-methyl-4-(trifluoromethyl)pyridin-2-yl)-1,3a,4,5,10,11a-hexahydro-2H-benzo[b]pyrrolo[2,3-f][1,4]diazocine-2,11(3H)-dione] the figure was 3.83e+06 M⁻¹ s⁻¹; with `C=CC(=O)N1CC2(CN(CCN3C[C@H]4CC(=O)N(c5cc(C(F)(F)F)cc(C)n5)[C@@H]4C(=O)N(C)c4cccc(F)c43)C[C@H]3COCCN32)C1` (racemic) [Example 24b, (3aR,11aS)-5-(2-((S/R)-1-acryloyltetrahydro-1′H-spiro[azetidine-3,6′-pyrazino[2,1-c][1,4]oxazin]-8′(7′H)-yl)ethyl)-6-fluoro-10-methyl-1-(6-methyl-4-(trifluoromethyl)pyridin-2-yl)-1,3a,4,5,10,11a-hexahydro-2H-benzo[b]pyrrolo[2,3-f][1,4]diazocine-2, 11(3H)-dione], 290000 M⁻¹ s⁻¹. In the case of `C=C(CN(C)C)C(=O)N1CC(c2cccc(CN3C[C@H]4CC(=O)N(c5cc(C(F)(F)F)cc(C)n5)[C@@H]4C(=O)N(C)c4cccc(F)c43)c2)C1` [Example 152, (3aR, 11aS)-5-(3-(1-(2-((dimethylamino)methyl)acryloyl)azetidin-3-yl)benzyl)-6-fluoro-10-methyl-1-(6-methyl-4-(trifluoromethyl)pyridin-2-yl)-1,3a,4,5,10,11a-hexahydro-2H-benzo[b]pyrrolo[2,3-f][1,4]diazocine-2,11(3H)-dione] it was 5.05e+06 M⁻¹ s⁻¹.
